How the values were obtained:
[1] = tested on: MV4-11 cells; experiment: Generation of drug-resistant MV4-11 cells under chronic treatment; type: cell-based; conditions: inhibitor increased from 0.5 to 5 μM over 10 weeks
Experimental: Then the concentration was maintained at 5 μM.

[2] = tested on: HL60 cells; experiment: XTT cell proliferation assay, HL60 cells; type: cell-based
Experimental: MV4-11 or HL-60 cells were seeded into a clear-bottom 96-well plate containing varying concentrations of inhibitors in the optimal growth media described above and the mixtures were incubated for 16 h. Cells were then treated with a mixture of XTT-labeling reagents and the electron coupling reagents according to the manufacturer's protocol (Roche). After 4 h, the absorbance values at 475 nm and at 660 nm were simultaneously measured by Synergy™ Neo spectrofluorometer at 25° C. Cells with the growth media was used for background correction.

## [N-]=[N+]=C(C(=O)OC1CCCCC1)C(Nc1ncccn1)c1c[nH]c2ccccc12 (racemic) [WC36, Cyclohexyl 2-diazo-3-(1H-indol-3-yl)-3-(pyrimidin-2-ylamino)propanoate]
[1]
  development of acquired resistance: could not develop resistance to WC36
[2]
  inhibition of proliferation (XTT assay): potently suppressed the proliferation of HL60 cells
